Assay results taken from patent publication US8337835B2, “Use of an endogenous ligand for peroxisome proliferator activated receptor alpha to treat liver disorders” (priority 2009, dated 2012).

What was measured:
hepatic steatosis = experiment: Portal vein infusion, liver fat / triglyceride content in zero fat diet and fasting fatty liver model; type: in vivo, mouse
PPARα = molecular target: T1, PPARα (Mus musculus, UniProt P23204); experiment: In vivo competitive inhibition: displacement of 16:0/18:1-GPC (m/z 766) from FLAG-tagged PPARα, ESI/MS; settings: 50 μg/g intraperitoneal; chow and zero fat diet fed WT mice on PPARα null background with AdFLAG-PPARα; 0-60 min
T1 construct: expressed in transfected cells; host or cells: liver of chow- or ZFD-fed WT mice on a PPARα null background, infected with AdFLAG-PPARα adenovirus
T1 sequence (P23204 1-468): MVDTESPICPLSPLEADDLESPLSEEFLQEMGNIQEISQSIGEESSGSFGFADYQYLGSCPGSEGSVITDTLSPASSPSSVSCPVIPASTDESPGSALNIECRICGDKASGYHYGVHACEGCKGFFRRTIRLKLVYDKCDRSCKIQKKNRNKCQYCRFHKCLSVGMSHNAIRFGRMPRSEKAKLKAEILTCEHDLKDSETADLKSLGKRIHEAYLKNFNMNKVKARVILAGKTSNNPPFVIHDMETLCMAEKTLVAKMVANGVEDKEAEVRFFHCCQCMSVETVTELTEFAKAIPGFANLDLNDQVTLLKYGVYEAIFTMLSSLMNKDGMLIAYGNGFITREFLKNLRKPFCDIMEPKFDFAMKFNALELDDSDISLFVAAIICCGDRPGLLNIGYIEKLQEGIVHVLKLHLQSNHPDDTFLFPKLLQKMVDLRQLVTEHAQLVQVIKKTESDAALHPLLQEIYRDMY
Method: Freshly harvested livers (˜100 mg) were gently homogenized in ice-cold non-detergent hypotonic buffer (10 mM HEPES, pH 7.9, 1.5 mM MgCl2, 10 mM KCl, 100 mM DTT, protease and phosphatase inhibitor cocktail). After an additional 10 min incubation in the hypotonic buffer, the homogenate was centrifuged at 8000×g at 4° C. for 20 min. The pellet was homogenized in ice-cold extraction buffer (10 mM HEPES, pH 7.9, 1.5 mM MgCl2, 0.21 M NaCl, 0.2 mM EDTA, 25% (v/v) glycerol, 100 mM DTT, protease and phosphatase inhibitor cocktail), placed on a rotating shaker at 4° C. for 1 h, then centrifuged at 18,000×g for 10 min. […]
The in vivo displacement of the endogenous PPARα ligand 16:0/18:1-GPC by the PPARα agonist Wy14,643 was assessed by electrospray ionization mass spectrometry (ESI/MS) Analysis. […] Wy14,643 in chow fed WT mice on a PPARα null background injected with AdFLAG-PPARα adenovirus are shown in FIGS. 4A-D. Similarly, representative ESI/MS scans of GPC species at different time intervals following an intraperitoneal injection of 50 μg/g Wy14,643 in ZFD fed mice are shown in FIGS. 4E-H. Insets in FIGS. 4A-H depict the ion at m/z 766 (16:0/18:1-GPC) that is time-dependently competed away with Wy14,643 while quantification of the relative abundance of the peak abundance of m/z 766 ion in response to Wy14,643 is shown in FIG. 4I. […]

Row | displacement of 16:0/18:1-GPC (m/z 766) from PPARα (PPARα) | SMILES | liver lipid content (hepatic steatosis; PPARα-deficient mice, 10 mg/kg intraportal three times a day, 5 days ZFD, 24 h fast) | liver fat content (hepatic steatosis; control (C57/BL6) mice, 10 mg/kg intraportal three times a day, 5 days ZFD, 24 h fast, vs vehicle) | effect of intraperitoneal administration (hepatic steatosis; intraperitoneal route, preliminary results (data not shown))
1 | – | CCCCCCCC/C=C\CCCCCCCC(=O)O[C@H](COC(=O)CCCCCCCCCCCCCCC)COP(=O)([O-])OCC[N+](C)(C)C [16:0/18:1-GPC, 1-palmitoyl-2-oleoyl-sn-glycerol-3-phosphocholine] | unaffected | decreased | no effect
2 | displaced from PPARα within minutes | Cc1cccc(Nc2cc(Cl)nc(SCC(=O)O)n2)c1C [Wy14,643, 4-Chloro-6-(2,3-xylidino)-2-pyrimidinylthioacetic acid] | – | – | –
